Reference: patent US20080249144A1, “Preventive or Therapeutic Agent for Chronic Inflammatory Lung Disease” (KAKEN PHARMACEUITICAL CO., LTD., priority 2004, published 2008)

Legend:
[1] = KP-496 concentration in the mouse lung tissue after inhalation; type: in vivo, mice; details: after 30 min inhalation of nebulized KP-496 solution (0.5 w/v %)
Procedure: Seven-week old C57BL-strain male mice were was used. The mouse was allowed to inhale nebulized KP-496 for 30 min. through a nasal cavity to the lung tissue in the same manner as in Example 2. After completion of the inhalation, the mouse was killed by exsanguination under anaesthesia with pentobarbital. Immediately after that, the lung was excised out, weighed and freezed at −80° C. to store. A 4-fold volume of phosphate buffer was added to the lung homogenized and measured with LC-MS. The number of animals was five.

human neutrophils = experiment: LTB4-induced human neutrophil migration (48-well modified Boyden chamber); type: cell-based
Procedure: Leukocytes were collected from human peripheral blood samples (20 mL of venous blood was taken by a doctor) were obtained from 4 healthy adults (male). They received sufficient information on the purpose of the experiment and gave informed consent in advance. An equivalent amount of 3% dextran (M.W. 208000) saline solution was added to the heparinized blood thus obtained and the mixture was kept to stand for one hour. Thereafter, the supernatant was collected and centrifuged at 150 g for 5 minutes at 4° C. The supernatant was discarded and the pellet was repeatedly twice haemolysed. To explain in detail, 4 mL of an ice-cooled 0.2% NaCl solution was added, quickly suspended and allowed to stand for 20 to 30 seconds. Thereafter, 4 mL of an ice-cooled 1.6% NaCl solution was added to the suspension solution to return the solution to the isotonic condition. After centrifugation was performed at 150 g for 5 minutes at 4° C., the same treatment was repeated. The cell pellet obtained was finally suspended in a buffer (Hank's solution containing 0.1% FBS) and subjected to an experiment.
This experiment was performed using a 48-well modified Boyden chamber (Neuro Probe). To explain in detail, the wells of the bottom plate of the chamber were filled with 25 μl of vehicle solution containing 10 nmol/L of LTB4. A polycarbonate filter (PVP-free, pore size: 3 μm) was placed on the bottom plate. The top plate of the chamber was mounted and each well of the upper plate was filled with 45 μL of a leukocyte suspension solution (1.0×10^6 cells/mL) prepared with the buffer. Immediately after that, 5 μL of a test substance (10 fold concentration of a final concentration) was added to the wells. […] The numbers of cells were counted in 4 visual fields (×400) per well and the average of them was regarded as the number of migrated cells. Each test substance was evaluated using 3 wells. The average value of these wells was calculated and regarded as the value of each substance.
The average and standard deviation of each group were calculated. […]

[2] = tested on: PPE-induced pulmonary emphysema model; experiment: PPE-induced pulmonary emphysema model in mice; type: in vivo
Procedure: Eight-week old C57BL strain mice were anaesthetized with isoflurane. PPE (25 μg) was administered once to the lung through a cannula inserted into the trachea through the pharyngolarynx to induce a pulmonary damage. To a non-PPE administration group (normal group), saline was administered instead. In a preventive administration experiment (hereinafter referred to as a “preventive experiment”) of KP-496, drug effect was evaluated on inflammatory cells in BALF 2 days after PPE administration and by histopathological examination of the lung after 10 days. In a therapeutic administration experiment of KP-496 (hereinafter referred to as a “therapeutic experiment”), the drug effect was evaluated by histo-pathological examination of the lung and weight of the organs 14 days after PPE administration.
The medicament administration period was set from the PPE administration date to the day before autopsy in the preventive experiment and set from a predetermined day (KP-496A group: PPE administration date, KP-496B group: 3 days after PPE administration date, KP-496C group: 7 days after PPE administration date) to the day before autopsy in the therapeutic experiment. Inhalation administration of KP-496 was performed in the same manner as in Example 2. Furthermore, the normal group and the control group were allowed to spontaneously inhale saline, instead. A medicament for use in comparison, prednisolone, was orally administered in a dose of 5 mg/kg twice a day. A group consisted of 10 animals.
The animals were anaesthetized with pentobarbital and killed by exsanguination. Immediately after that, BAL of the right and left lungs was performed with 2 ml of saline. In the same manner as in Example 2, the total number of cells and the number of cells according to the cell type in the BALE were determined.
The lung was excised out from the animal killed by exsanguination in the same manner as in the above, the weight of the lung was measured. The lung was fixed in 10 vol % neutral buffered formalin solution. A pathological tissue sample was prepared in accordance in a general way. The degree of the damage of the lung tissue observed was evaluated by scoring in the same manner as in Example 2. Furthermore, the average of alveolar-space area of the entire lung tissue sample was computationally measured with image-processing software.
The average value and standard deviation of each group were calculated. Comparison between the normal group and the control group was performed by the Levene's test for equal variance and then, the t-test was performed depending on the results. To compare the control group and test substance administration groups, equal variance was first confirmed by the Levene's test and then multiple comparisons were performed in accordance with the Dunnett's test. Note that evaluation parameters with unequal variance and the damage score of the lung tissue were analyzed by nonparametric Mann-Whitney test. The significance level employed was […].

[3] = 2 days after PPE, compared to control group
[4] = preventive experiment, 10 days after PPE

CC(C)c1csc(COc2cccc(CN(CCCCNS(=O)(=O)c3ccc(Cl)cc3)S(=O)(=O)c3ccccc3C(=O)O)c2)n1 [KP-496, 2-{N-[4-(4-chlorobenzenesulfonylamino)butyl]-N-{3-[(4-isopropyl-2-thiazolyl)methoxy]benzyl}}sulfamoylbenzoic acid]
content of KP-496 in murine lung [1]: 418 ± 114 ng | suppression of LTB4-induced cell migration, concentration dependence (human neutrophils; 10 nmol/L LTB4, human leukocytes, 1.5 hours): suppressed the cell migration in a concentration dependent manner | suppression of LTB4-induced neutrophil migration (human neutrophils; test substance 1 μmol/L, 10 nmol/L LTB4): significantly suppressed | total number of cells in BALF ([2]; 2 days after PPE administration, preventive experiment): 3.1±0.8 ×10^5 cells | number of eosinophils in BALF [2, 3]: lower values than in the control group | number of macrophages in BALF [2, 3]: significantly decreased | number of neutrophils in BALF [2, 3]: significantly decreased | weights of the organs (liver, spleen and thymus gland) ([2]; mouse, in vivo): No effect was observed | emphysema-like pathology of the lung (histopathology) [2, 4]: the pathologic lesion was localized and mild | increase in lung weight [2, 4]: significantly suppressed | damage score of the lung ([2]; preventive experiment, 10 days after PPE, compared with control group): significantly decreased | increase of the average of the alveolar-space area ([2]; preventive experiment, compared to control): significantly suppressed | lung weight ([2]; therapeutic experiment, 14 days after PPE, despite difference of the administration initiation date): lower values than the control group | damage score of the lung ([2]; therapeutic experiment, 14 days after PPE, each of the groups (start day 0, 3 or 7)): significantly decreased | lung weight, difference to control group ([2]; therapeutic experiment, administration started from PPE administration date): a significant difference was observed | increase of the average of the alveolar-space area ([2]; therapeutic experiment, each of the groups (start day 0, 3 or 7)): significantly suppressed
